According to patent US20240350647A1, “STING SENSITIZING AGENTS” (STipe Therapeutics ApS, priority 2023, published 2024):
Where a SMILES comes first, the peptide text is derived from it. Bridges are numbered along the chain shown (N, C = ends). [ ]: non-standard residue; d: D form. The star is where a group is joined. C16 diacid = O=C(O)CCCCCCCCCCCCCCC(=O)*; AEEA = NCCOCCOCC(=O)O

Experiment: Pharmacokinetics after 30-min intravenous infusion, cynomolgus monkey
Type: in vivo
Conditions: 4 mg/kg 30 min IV infusion
Experimental: Test agents were formulated in 2% (v/v) propylene glycol in 25 mM HEPES, pH 7.4 and administered with a bolus injection at 10.0 mg/kg via the tail vain to male CD-1 mice (Charles River Laboratories) or male Wistar rats (Charles River Laboratories), or with a 30-min intravenous infusion at 4 mg/kg to male cynomolgus monkeys.
Blood samples were collected at 2.5, 5, 10, 30, 60, 120, 240 and 480 minutes after administration (mouse and rat), or at 5, 15, 30, 60, 120, 240, 360, 480 and 1440 min (Agent 1) or at 5, 15, 30, 45, 60, 90, 150, 240 and 480 min (Agent 2) after the start of infusion in monkeys. […]
Monkey samples, Agent 1: Separation was done with a C18 column (Waters Acquity UPLC BEH C18 (50×2.1 mm, 1.7 μm)), using a gradient between 0.1% formic acid in water and 0.1% formic acid in acetonitrile. […] The range of quantitation was 10-3,000 ng/mL.
Monkey samples, Agent 2: Separation was done with a C18 column (Waters Acquity CSH C18 (50×2.1 mm, 1.7 μm)), using a gradient between 0.2% formic acid in acetonitrile and 0.2% formic acid in water. […] The range of quantitation was 10-10,000 ng/mL.
Non-compartmental PK analysis on plasma concentration versus time data was analyzed by non-compartmental approaches using the WinNonlin software program (version 6.3 or above, Pharsight, Mountain View, CA). […]

Question: For `CC[C@H](C)[C@H](NC(=O)[C@H](CC(N)=O)NC(=O)[C@H](CCCCN)NC(=O)[C@H](C)NC(=O)[C@H](CCCCN)NC(=O)[C@H](CCCCN)NC(=O)COCCOCCNC(=O)COCCOCCNC(=O)CCCCCCCCCCCCCCC(=O)O)C(=O)N[C@H](C(=O)N[C@@H](CC(C)C)C(=O)N[C@@H](CC(C)C)C(=O)N[C@@H](CCCCN)C(=O)NCC(=O)N[C@@H](CC(C)C)C(=O)N[C@@H](CCC(=O)O)C(=O)N[C@H](C(=O)N[C@H](C(=O)N[C@@H](CC(N)=O)C(=O)N[C@@H](CC(=O)O)C(=O)N[C@@H](Cc1c[nH]c2ccccc12)C(=O)N[C@@H](Cc1c[nH]cn1)C(=O)N[C@@H](Cc1ccccc1)C(=O)N[C@H]1CSSC[C@@H](C(N)=O)NC(=O)[C@@H](CCCNC(=N)N)NC(=O)[C@H](CCCNC(=N)N)NC(=O)[C@@H](CCCCN)NC(=O)[C@H](CCCCN)NC(=O)[C@@H](CCCNC(=N)N)NC(=O)CNC(=O)[C@@H](CCCNC(=N)N)NC(=O)[C@H](CCCNC(=N)N)NC(=O)[C@@H](CCCNC(=N)N)NC1=O)[C@@H](C)CC)C(C)C)C(C)C` [Agent 1] ({C16 diacid-AEEA-AEEA}-KKAKNIVLLKGLEVINDWHFC[dR]R[dR]G[dR]K[dK]R[dR]C-NH2; disulfide 21-31), which “increase in exposure (AUC0-inf) compared to Agent 2, at equal dose” value is on record?
Answer: The value was roughly 13 fold.
